Data on 14 compounds can be found in PubChem BioAssay (NCI).

Test systems include MDA-MB-231 breast; SK-MEL-28 melanoma; OVCAR-3 ovarian; KM12 colon; OVCAR-8 ovarian; COLO 205 colon; MDA-N; SNB-75 CNS; MDA-MB-435; HT29 colon.
Test in all cases: growth of human tumour cells (NCI), 48 h

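1) Cells in 96-well plates. 2) Compound, 48 h, 5 concentrations. 3) Linear interpolation between surrounding doses. 4) Unreached endpoint = highest concentration. At the TGI there is no net growth.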 A value given as a limit tells only on which side of the number the result lay.

On to `O=C(c1ccccc1)n1[nH]c(=O)n(-c2ccc(Cl)cc2)c1=O`, for which the TGI with MDA-MB-231 breast, in the experiment on SK-MEL-28 melanoma, in the experiment with OVCAR-3 ovarian, with KM12 colon, with OVCAR-8 ovarian and with COLO 205 colon was more than 100 µM each time. In addition, the TGI in the experiment on MDA-N, with SNB-75 CNS, in the experiment with MDA-MB-435 and in the experiment on HT29 colon was more than 100 µM throughout.

`COc1cccc(/C=N/n2c(Cc3ccc(Cl)cc3)n[nH]c2=O)c1`: the TGI with MDA-MB-231 breast was 48.2 µM; in the experiment on SK-MEL-28 melanoma, more than 100 µM; in the experiment with OVCAR-3 ovarian it was more than 100 µM; with KM12 colon, more than 100 µM; with OVCAR-8 ovarian, 36.7 µM; with COLO 205 colon, more than 100 µM. Moreover, the TGI with MDA-N is more than 100 µM; in the experiment on SNB-75 CNS it was 25.3 µM; in the experiment with MDA-MB-435, more than 100 µM; in the experiment with HT29 colon, 34 µM.

As for `CCOC(=O)O/N=C1/C(c2c(O)[nH]c3ccccc23)=Nc2ccccc21`, the TGI stood at 63 µM in the experiment with MDA-MB-231 breast; 41.8 µM with SK-MEL-28 melanoma; 8 µM in the experiment with OVCAR-3 ovarian; 13.8 µM in the experiment with KM12 colon; 30.8 µM in the experiment with OVCAR-8 ovarian; 28.8 µM in the experiment with COLO 205 colon. Further, the TGI in the experiment with MDA-N was 19.3 µM; with SNB-75 CNS it was 11.4 µM; with MDA-MB-435 it was 17.3 µM; in the experiment with HT29 colon, 46.7 µM.

As to `CC(C)=CCC/C(C)=C/CC/C(C)=C/CSc1ccc(Cl)cc1C(=O)O`, the TGI is 63.4 µM with MDA-MB-231 breast; 33.9 µM with SK-MEL-28 melanoma; 30.7 µM in the experiment on OVCAR-3 ovarian; 32.3 µM in the experiment with KM12 colon; 42.1 µM with OVCAR-8 ovarian; 51.6 µM in the experiment with COLO 205 colon. Besides, the TGI is 60.3 µM with MDA-N, 34.3 µM with SNB-75 CNS, 42.2 µM in the experiment with MDA-MB-435 and 37.4 µM in the experiment on HT29 colon.

Turning to `O=[N+]([O-])c1ccc(Cl)cc1N/N=C/c1cccs1`, the TGI in the experiment on MDA-MB-231 breast, in the experiment with SK-MEL-28 melanoma, in the experiment on OVCAR-3 ovarian, in the experiment on KM12 colon, with OVCAR-8 ovarian and in the experiment with COLO 205 colon was more than 100 µM each time. Further, the TGI with MDA-N, in the experiment on SNB-75 CNS, with MDA-MB-435 and in the experiment with HT29 colon was more than 100 µM throughout.

As to `CC(C)(CN1CCCCC1)C(=O)/C=C/c1c(Cl)cccc1Cl`, the TGI came to 2.15 µM in the experiment on MDA-MB-231 breast; 3.2 µM with SK-MEL-28 melanoma; 2.4 µM in the experiment on OVCAR-3 ovarian; 2.36 µM in the experiment on KM12 colon; 9.21 µM with OVCAR-8 ovarian; 3.05 µM with COLO 205 colon. Besides, the TGI stood at 2.38 µM in the experiment with MDA-N, 2.38 µM in the experiment with SNB-75 CNS, 2.85 µM in the experiment on MDA-MB-435 and 2.89 µM with HT29 colon.

Consider `Cc1nc2sccn2c1C(=O)OCCOCCOCCOCCOC(=O)c1c(C)nc2sccn12`, for which the TGI in the experiment on MDA-MB-231 breast, in the experiment with SK-MEL-28 melanoma, in the experiment with OVCAR-3 ovarian, in the experiment on KM12 colon, in the experiment with OVCAR-8 ovarian and in the experiment with COLO 205 colon was more than 100 µM throughout. Further, the TGI in the experiment on MDA-N, in the experiment on MDA-MB-435 and in the experiment on HT29 colon was more than 100 µM in each case.

With `Cc1nc(N)nc(N)c1N1CCN(Cc2ccccc2)CC1`, the TGI in the experiment with MDA-MB-231 breast, with SK-MEL-28 melanoma, in the experiment on OVCAR-3 ovarian, with KM12 colon, in the experiment with OVCAR-8 ovarian and in the experiment with COLO 205 colon was more than 100 µM in each case. Also, the TGI in the experiment on MDA-N, in the experiment with SNB-75 CNS, with MDA-MB-435 and in the experiment on HT29 colon was more than 100 µM in each case.

Take `CC12CCC(C1)C(C)(C)C2OC(=O)c1ccccc1C(=O)O` (stereo unspecified): the TGI with MDA-MB-231 breast, with SK-MEL-28 melanoma, with KM12 colon, with OVCAR-8 ovarian, with COLO 205 colon and in the experiment with MDA-N was more than 100 µM each time. Moreover, the TGI in the experiment on SNB-75 CNS, in the experiment with MDA-MB-435 and in the experiment with HT29 colon was more than 100 µM throughout.

For `C/C(NC(=O)c1ccccc1)=C(/C(=O)c1ccccc1)[C@@H]1OC(C)(C)O[C@@H]1[C@H]1COC(C)(C)O1`, the TGI with MDA-MB-231 breast is more than 100 µM; in the experiment with SK-MEL-28 melanoma, more than 100 µM; in the experiment with OVCAR-3 ovarian, more than 100 µM; in the experiment on KM12 colon, more than 100 µM; with OVCAR-8 ovarian, more than 100 µM; with COLO 205 colon, 48.9 µM. Further, the figures for the TGI with MDA-N, with MDA-MB-435 and with HT29 colon were 39.1 µM, 39.9 µM and 86.3 µM, respectively.

As to `COc1cc(C)cc(OC)c1/C=C/C(=O)O`, the TGI in the experiment with MDA-MB-231 breast is more than 100 µM; in the experiment with SK-MEL-28 melanoma it was more than 100 µM; with OVCAR-3 ovarian it was 87.6 µM; in the experiment with KM12 colon, more than 100 µM; in the experiment with OVCAR-8 ovarian, more than 100 µM; with MDA-N it was more than 100 µM. The TGI with MDA-MB-435 and in the experiment on HT29 colon was more than 100 µM each time.

With `CN(/N=C/c1ccc(Cl)c(Cl)c1)C1=NCCN1`, the TGI was 77.2 µM in the experiment with MDA-MB-231 breast; more than 100 µM with OVCAR-3 ovarian; 67.6 µM in the experiment with KM12 colon; more than 100 µM with OVCAR-8 ovarian; 38.9 µM in the experiment on COLO 205 colon; 31.9 µM in the experiment on MDA-N. Moreover, the figures for the TGI with SNB-75 CNS, in the experiment on MDA-MB-435 and with HT29 colon were more than 100 µM, 44.6 µM and more than 100 µM, respectively.

Take `CCCC1C(C#N)(C#N)C(C#N)=C(N)C1(C)C(C)=O` (stereo unspecified): the TGI was more than 100 µM with MDA-MB-231 breast; more than 100 µM in the experiment with KM12 colon; more than 100 µM with OVCAR-8 ovarian; more than 100 µM in the experiment on COLO 205 colon; more than 100 µM with MDA-N; 96.9 µM with SNB-75 CNS. Moreover, the TGI with MDA-MB-435 and with HT29 colon was more than 100 µM each time.

Turning to `CCOC(=O)C12C(=O)CCN1CCc1ccccc1C2C` (stereo unspecified), the TGI in the experiment on MDA-MB-231 breast, in the experiment with SK-MEL-28 melanoma, in the experiment with OVCAR-3 ovarian, in the experiment on KM12 colon, in the experiment on OVCAR-8 ovarian and in the experiment with COLO 205 colon was more than 100 µM each time. In addition, the TGI in the experiment with MDA-N, in the experiment with MDA-MB-435 and with HT29 colon was more than 100 µM each time.
